Test results taken from patent publication EP4380555B1, “COMPOSITION COMPRISING D-MANNOSE, N-ACETYLCYSTEINE AND PALMITOYLETHANOLAMIDE AND ITS USE FOR THE TREATMENT OF URIRNARY TRACT INFECTIONS” (Agave S.r.l., priority 2021, dated 2023).
Values after ≈ are worked out from the molar mass of the structure shown.

What was measured:
Assay type in all cases: cell-based
Klebsiella pneumoniae [1] = assay: Minimum biofilm inhibitory concentration (MBIC), crystal violet staining, comparison with fosfomycin; conditions: K. pneumoniae; 24 h
Experimental: (§1) The capacity of the product Comp. […] The formation of the biofilm was viewed by means of Crystal Violet staining, wherein the stain penetrates the bacterial cells and turns them purple. To determine the MBIC, 48-well plates were utilised. 200 µL of the sample, prepared at a concentration of 2x with respect to the maximum concentration being tested, was dispensed into the first well and 100 µL of medium was added to the subsequent wells, performing serial dilutions of 1:2 up to the 8th well. Finally, 100 µL of each microorganism at a concentration of 10^5 were inoculated into each well. The biofilm inhibition activity of the fosfomycin, at a lower concentration with respect to the MIC value measured in Example 10, was also assessed and the sterility and growth tests were performed for each microorganism. The multiwell plates were incubated at 37°C for 24 hours and then the supernatant present was removed, together with the planktonic bacteria not attached to the plate. The biofilm was then washed 3 times with PBS and subsequently the cells were fixed by means of incubation at 60°C for 2 hours, before being stained with crystal violet. The crystal violet staining was performed to assess the effect of the product and the fosfomycin on the formation of the biofilm. 50 µL crystal violet dissolved in deionised water was dispensed into each well and, after 5 minutes of incubation at room temperature, each well was finally washed three times with PBS 1x. The biofilm inhibition activity was viewed by microscopic observation under stereomicroscope and optical microscope using the phase-contrast method. The final concentrations tested for each sample are stated in Table 3. Table 3 [table]

Enterococcus faecium [2] = assay: as above; conditions: E. faecium; 24 h
Experimental: as §1

Escherichia coli [3] = assay: as above; conditions: E. coli; 24 h
Experimental: as §1

[4] = system: Escherichia coli (DSM 1576); assay: MIC determination by broth dilution (CLSI M07), 96-well plates; conditions: Escherichia coli, DSM1576; E. coli, 37°C, 24 h
Experimental: (§2) The antimicrobial activity of the product Comp. 1 in Example 10 was tested in vitro according to method CLSI M07 "Methods for dilution Antimicrobial susceptibility tests for bacteria that grow aerobically".
(§3) For this purpose, the MIC (Minimum Inhibitory Concentration) values were determined with respect to the main microorganisms responsible for urinary tract infections.
(§4) More specifically, the microorganisms utilised were: Escherichia coli (DSM 1576), Klebsiella pneumoniae (DSM 30104), and Enterococcus faecalis(DSM 20477).
(§5) For each experiment conducted, the bacteria stated above were revived from a cell bank stored at -80°C. […]
(§6) The assay to determine the MIC was conducted in 96-well plates testing 12 concentrations (serial dilutions) of each sample. 200 µL of the sample, prepared at a concentration of 2x with respect to the maximum concentration being tested, was dispensed into the first well and 100 µL medium was added to the subsequent wells, performing serial dilutions of 1:2 up to 12th well. Finally, 100 µL of each microorganism at a concentration of 10^5 was inoculated into each well.
(§7) Two antibiotics were used as controls: Fosfomycin (Sigma) and Ceftriaxone (Sigma) at different final concentrations based on the microorganism utilised; both the antibiotics were dissolved in sterile water and then filtered with 0.22 µm filters.
(§8) Growth was tested and the sterility of the medium and of the product was tested. The antimicrobial activity of the D-mannose was also assessed individually. The plates thus prepared were incubated at 37°C for 24h and the results were then observed (Figure 1). The final concentrations tested for each product analysed are stated in Table 2.

[5] = system: Klebsiella pneumoniae (DSM 30104); assay: as above; conditions: Klebsiella pneumoniae, DSM30104; Klebsiella, 37°C, 24 h
Experimental: as §2, §3, §4, §5, §6, §7, §8

Klebsiella pneumoniae [6] = assay: Minimum biofilm eradication concentration (MBEC), 72 h preformed biofilm, crystal violet staining; conditions: K. pneumoniae; 72 h biofilm, 24 h treatment
Experimental: (§9) To determine the minimum biofilm eradication concentration, 48-well plates were utilised. The microorganisms were incubated for 72 h at 37°C to allow the formation of the biofilm. Once formed, the biofilm was treated with fosfomycin and with the product Comp. 1 in Example 10. In particular, after the formation of the biofilm, the supernatant was suctioned and replaced with solutions containing gradually decreasing concentrations of product or of fosfomycin. The plates thus prepared were incubated for 24 h at 37°C. At the end of the incubation time, the supernatant present in each well was removed, together with the bacteria that was not attached to the plate and, after washing, the plates were incubated at 60°C for 2 hours to fix the cells before the staining with crystal violet. The crystal violet staining was performed to assess the effect of the product and the fosfomycin on the removal of the biofilm. 50 µL crystal violet dissolved in deionised water was dispensed into each well. After 5 minutes of incubation at room temperature, each well was washed three times with PBS 1x. The biofilm eradication activity was viewed under microscopic observation (Figures 7-9). The final concentrations tested for each product are stated in Table 4 Table 4 [table]

Enterococcus faecium [7] = assay: as above; conditions: E. faecium; fosfomycin 3000-23.44 µg/mL tested
Experimental: as §9

Escherichia coli [8] = assay: as above; conditions: E.coli; fosfomycin 30000-234.38 µg/mL tested
Experimental: as §9

Enterococcus faecium [9] = assay: MIC determination by broth dilution (CLSI M07), 96-well plates; conditions: Enterococcus faecium; E. faecium, 37°C, 24 h

- MIC [4]: 19.5 mg/L (≈ 141 µM)
- MIC [5]: 5000 mg/L (≈ 36200 µM)
- MIC (Enterococcus faecium [9]): 78.1 mg/L (≈ 566 µM)
Compound: C[C@@H]1O[C@@H]1P(=O)(O)O [fosfomycin, Fosfomycin]
- concentrations with a biofilm inhibition effect (Klebsiella pneumoniae [1]): ≥ 78 µg/mL
- concentration necessary for biofilm inhibition effect (Enterococcus faecium [2]): at least 321 µg/mL
- concentrations with a biofilm inhibition effect (Escherichia coli [3]): ≥ 78 µg/mL
- concentrations with biofilm eradication activity (Klebsiella pneumoniae [6]): greater than 468 µg/mL
- biofilm eradication effect (Enterococcus faecium [7]): did not seem to have a biofilm eradication effect
- biofilm eradication effect (Escherichia coli [8]): did not seem to have a biofilm eradication effect
